{
  "source": "patent US10188617B2",
  "about": "“Modulation of cellular DNA repair activity to intercept malignancy” (THE BOARD OF TRUSTEES OF THE LELAND STANFORD JUNIOR …, priority 2013, dated 2019);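 on EC50: SUM149PT cells pretreated 24 h with compound, then given photodynamically oxidized adenoviral GFP reporter, 24 h host-cell reactivation, GFP read as repair, undamaged reporter positive and damaged reporter negative control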;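 on Hoechst-positive cells: SUM149PT cells pretreated 24 h with compound, then given photodynamically oxidized adenoviral GFP reporter, 24 h host-cell reactivation, GFP read as repair, undamaged reporter positive and damaged reporter negative control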;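 on Priority score (summed priority score): SUM149PT cells pretreated 24 h with compound, then given photodynamically oxidized adenoviral GFP reporter, 24 h host-cell reactivation, GFP read as repair, undamaged reporter positive and damaged reporter negative control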",
  "key": {"[1]": {"test_system": "8oxoG lesions in breast cancer cell lines with defective BER", "assay": "8oxoG lesions (OxyFlow Kit)", "assay_type": "cell-based, human", "conditions": "time-dependent", "experimental": "Cells were analyzed using the OxyFlow™ Kit (Hemogenix) according to the manufacturer's instructions."}, "[2]": {"test_system": "other BER-defective breast cancer cell lines", "assay": "Hoechst live-cell staining (cell number)", "assay_type": "cell-based, human", "conditions": "20 μM", "experimental": "(§1) Cells were treated with acetohexamide for 48 hours in quadruplicate and then incubated with 2 μg/ml Hoechst 33358 live-cell dye for 20 minutes. Four representative fields for each replicate were imaged by the ImageXpress 5000A high-content imager (Molecular Devices). Nuclei were counted using MetaMorph® software (Molecular Devices) and expressed as a percentage relative to the vehicle control (DMSO)."}, "[3]": {"test_system": "SUM149PT cells", "assay": "Hoechst live-cell staining (cell number)", "assay_type": "cell-based, human", "conditions": "concentrations up to 40 μM", "experimental": "as §1"}, "[4]": {"test_system": "BER of ODD in SUM149PT cells", "assay": "High-throughput chemical screen with cell-based DNA repair assay (oxidatively damaged GFP reporter, host-cell reactivation)"}, "[5]": {"test_system": "H2O2-induced ODD in breast cancer cell lines with defective BER", "assay": "Alkaline comet assay modified for detection of oxidative lesions (FPG)", "assay_type": "cell-based, human", "conditions": "pretreatment, compared to undamaged control", "experimental": "(§2) Cells were collected and embedded into CometAssay® LM Agarose (Trevigen) and placed on CometAssay® HT Slides (Trevigen) in duplicate. Cells were lysed at 4° C. in Lysis Buffer (Trevigen) for >24 hours. Slides were treated with or without FPG enzyme at 37° C. and 5% CO2 for 45 minutes to nick DNA at sites of ODD and then subjected to alkaline treatment at 4° C. for 40 minutes to denature DNA. Slides underwent electrophoresis under alkaline conditions to separate intact from damaged DNA. Following neutralization, DNA was stained using SYBR® green I and visualized as a comet in shape by fluorescent microscopy under 20× objective. […] CometScore software was used to quantify % DNA in Tail. Strand breaks were determined by % DNA in Tail in FPG-minus samples. ODD was determined by subtracting % DNA in Tail in FPG-minus samples from % DNA in Tail in FPG-plus samples."}, "[6]": {"test_system": "BER-defective and BER-proficient cells", "assay": "Alkaline comet assay, strand breaks", "assay_type": "cell-based", "conditions": "compared to the vehicle control; H2O2 positive control", "experimental": "as §2"}, "[7]": {"test_system": "SUM149PT and other cell lines", "assay": "MTT assay (cell viability)", "assay_type": "cell-based, human", "conditions": "concentrations up to 1 mM, 72 hours"}, "[8]": {"test_system": "BER of ODD in HCC1937 cells (mutant BRCA1)", "assay": "DNA repair assay (oxidatively damaged GFP reporter gene), follow-up", "assay_type": "cell-based, human", "conditions": "20 μM, HCC1937, vs vehicle", "experimental": "(§3) Human breast cancer cell lines that were deficient in BER (HCC1143, MDAMB468, HCC1937, and SUM149) or proficient in BER (BT474 and MCF7) were cultured according to American Type Culture Collection guidelines, with the exception of SUM149, which was cultured according to Asterand plc guidelines. Brca1^+/+ and Brca1^-/- mouse mammary epithelial […] previously described. Cells were treated with DMSO (vehicle control) or acetohexamide or benserazide as indicated for 24 hours at 37° C. and 5% CO2. The DNA repair assay was carried out as described in the examples below. Where indicated, BER (base excision mode of DNA repair) activity was expressed relative to the control (DMSO)."}, "[9]": {"test_system": "BER of ODD in MCF7 cells (wild-type BRCA1, BER-proficient)", "assay": "DNA repair assay (oxidatively damaged GFP reporter gene), follow-up", "assay_type": "cell-based, human", "conditions": "20 μM, MCF7, vs vehicle", "experimental": "as §3"}, "[10]": {"test_system": "BER of ODD in BT474 cells (wild-type BRCA1)", "assay": "DNA repair assay (oxidatively damaged GFP reporter gene), follow-up", "assay_type": "cell-based, human", "conditions": "20 μM, BT474, vs vehicle", "experimental": "as §3"}, "[11]": {"test_system": "BER of ODD in SUM149 cells (mutant BRCA1, BER-defective)", "assay": "DNA repair assay (oxidatively damaged GFP reporter gene), follow-up", "assay_type": "cell-based, human", "conditions": "for BER: 20 μM, SUM149, vs vehicle; for repair of oxidatively damaged GFP reporter gene, dose-response: SUM149PT cells, 24 hours treatment", "experimental": "as §3"}, "[12]": {"test_system": "BRCA1 wild-type (MCF7) and mutant (HCC1937) cells", "assay": "Trypan blue exclusion assay (cell viability)", "assay_type": "cell-based, human", "conditions": "treated simultaneously with the colony formation assay", "source_text": "In FIG. 14C, BRCA1 wild-type (MCF7) and mutant (HCC1937) cells were simultaneously treated and then analyzed for cell viability by the trypan blue exclusion assay."}, "[13]": {"test_system": "BRCA1-mutant/deficient cells", "assay": "Soft agar colony formation assay (in vitro tumorigenesis)", "assay_type": "cell-based, human", "conditions": "20 μM benserazide vs 1 μM tamoxifen and vehicle", "experimental": "BRCA1 wild-type (MCF7) and mutant (HCC1937) cells (FIG. 14A) as well as MCF7 cells stably transduced with shRNA to BRCA1 or non-targeting control (FIG. 14B) were treated with vehicle control, 20 μM benserazide, or 1 μM tamoxifen and subjected to the soft agar colony formation assay, i.e. the standard assay for in vitro tumorigenesis. Colony formation represents tumorigenic potential. Tamoxifen is the current FDA-approved chemoprevention agent for breast cancer and a therapeutically-equivalent dose was used for comparison."}, "[14]": {"test_system": "HCC1937 cells", "assay": "Mouse xenograft model of in vivo tumorigenesis (chemoprevention)", "experimental": "For in vivo tumorigenesis, we utilized a mouse xenograft model that began treatment with the DNA repair-activating agent 24 hours prior to inoculation of HCC1937 cells into the mammary fat pad. Treatment with vehicle control, 50 mg/kg benserazide, or 250 mg/kg benserazide continued daily for up to 60 days while monitoring for tumor formation by palpitation. After the 60 days (i.e. study endpoint), serum was collected for analysis of 8oxodG levels, tumors (if present) were excised and weighed, and anatomy was analyzed for metastasis."}, "[15]": {"conditions": "study endpoint 60 days, dose response"}},
  "data": [
    {"smiles": "CC(=O)c1ccc(S(=O)(=O)NC(=O)NC2CCCCC2)cc1", "note": "[Acetohexamide]", "values": [
      {"measurement": "basal levels of 8oxoG lesions", "setting": "[1]", "result": "decreased basal levels of 8oxoG lesions"},
      {"measurement": "cell number (Hoechst 33342 staining)", "setting": "[2]", "result": "nor did it affect the cell number"},
      {"measurement": "number of cells (Hoechst 33342 staining)", "setting": "[3]", "result": "did not affect the number of SUM149PT cells"},
      {"measurement": "EC50", "setting": "[4]; read-out: EC50 (image analysis), dose-response increase in GFP expression by imaging, 20 μM to 0.3 μM two-fold dilutions", "result": 42.4, "unit": "µM"},
      {"measurement": "Hoechst-positive cells", "setting": "[4]; screening data by imaging, compared to negative control", "result": 87.8, "unit": "%"},
      {"measurement": "Priority score (summed priority score)", "setting": "[4]; sum of assigned priority scores, range 1-10, 10 = highest priority", "result": 7},
      {"measurement": "H2O2-induced ODD", "setting": "[5]", "result": "decreased H2O2-induced ODD to levels similar to those of the undamaged control"},
      {"measurement": "DNA strand breaks", "setting": "[6]", "result": "did not significantly induce DNA strand breaks"},
      {"measurement": "cell viability (MTT)", "setting": "[7]", "result": "did not affect the cell viability"},
      {"measurement": "BER", "setting": "[8]", "result": "statistically significant increase in BER"},
      {"measurement": "BER", "setting": "[9]", "result": "no effect on BER"},
      {"measurement": "BER", "setting": "[10]", "result": "no effect on BER"},
      {"measurement": "BER", "setting": "[11]", "result": "statistically significant increase in BER"},
      {"measurement": "repair of oxidatively damaged GFP reporter gene, dose-response", "setting": "[11]", "result": "dose-response increase in repair of an oxidatively damaged GFP reporter gene"},
      {"measurement": "relative BER activity", "setting": "[11]; relative to the control (DMSO)", "result": "1.68±0.13"}
    ]},
    {"smiles": "NC(CO)C(=O)NNCc1ccc(O)c(O)c1O", "note": "(stereo not shown) [benserazide, 2-amino-3-hydroxy-N′-[(2,3,4-trihydroxyphenyl)methyl]propanehydrazide]", "values": [
      {"measurement": "cell viability (trypan blue exclusion)", "setting": "[12]", "result": "not due to a decrease in cell viability"},
      {"measurement": "in vitro tumorigenic potential (colony formation)", "setting": "[13]", "result": "prevented in vitro tumorigenesis"},
      {"measurement": "in vitro tumorigenic potential (colony formation)", "setting": "[13]; listed as Benserazide", "result": "superior to tamoxifen at reducing in vitro tumorigenic potential"},
      {"measurement": "BER", "setting": "[8]", "result": "statistically significant increase in BER"},
      {"measurement": "BER", "setting": "[9]", "result": "no effect on BER"},
      {"measurement": "BER", "setting": "[10]", "result": "no effect on BER"},
      {"measurement": "BER", "setting": "[11]", "result": "statistically significant increase in BER"},
      {"measurement": "repair of oxidatively damaged GFP reporter gene, dose-response", "setting": "[11]", "result": "dose-response increase in repair of an oxidatively-damaged GFP reporter gene"},
      {"measurement": "tumor formation over time", "setting": "[14]; 50 or 250 mg/kg daily up to 60 days", "result": "delayed tumor formation over time"},
      {"measurement": "percentage of tumor-free mice", "setting": "[14]; 50 or 250 mg/kg daily up to 60 days, started 24 hours prior to inoculation", "result": "increased the percentage of tumor-free mice in a dose-response manner"},
      {"measurement": "metastasis", "setting": "[14]; both concentrations (50 and 250 mg/kg), unlike vehicle control", "result": "prevented metastasis"},
      {"measurement": "serum levels of 8oxodG", "setting": "[14]; [15]", "result": "increase serum levels of 8oxodG"},
      {"measurement": "tumor weights", "setting": "[14]; [15]", "result": "decrease tumor weights"}
    ]}
  ]
}
